According to patent US8232278B2 (Gilead Sciences, Inc., priority 2005, dated 2012):
Where “and” joins values, the source holds several entries; their conditions need not be identical. Equal values may be shown once. Read-outs that look alike come from different tables or passages of the source.

Columns and labels:
[1] = CC50 assay in Huh-7 HCV replicon cells (CellTiter-Glo); format: cell-based, human; settings: human, 50% cytostatic concentration
Description: (§1) The anti-HCV activity of the pyrido[3,2-d]pyrimidine derivatives of this invention was tested in a human hepatoma Huh-7 cell line harbouring a HCV replicon. The assay comprised the following steps:
(§2) Step 1: Compound Preparation and Serial Dilution
(§3) • 1. for water soluble pyrido[3,2-d]pyrimidine derivatives, a volume of 500 μL of solution in cell media (DMEM, 10% FBS, P/S, L-Glutamine) was prepared with a concentration being twice the concentration of the starting final serial dilution concentration. […] The rest of the plate, columns 2-12, was filled with 100 μL of cell media. The plate was then placed on a Precision 2000 Workstation to start the serial dilution. Compounds were diluted three times each step from column 1 to column 10. Column 11 was used as a blank control (no compound added). • 2. for pyrido[3,2-d]pyrimidine derivatives requiring DMSO to dissolve, serial dilution is performed in 50% DMSO in a 384-well plate. A solution containing a compound at 100-fold concentration of the starting final serial dilution concentration was prepared in 50% DMSO and added to the pre-specified wells in column 1 of a polypropylene 384-well plate. The plate was then placed on a Precision 2000 Workstation to start the serial dilution. After the serial dilution, a volume of 2 μL of the solution was transferred from the 384-well plate to a 96-well cell culture plate containing 100 μL of cell media on a Biomek FX Workstation. The DMSO concentration in the final assay condition was 0.5% after cells are added to the plate and the total volume in each well is brought to 200 μL. Step 2: to each well of the serial dilution plate prepared above, 100 μL of cell media containing 6000 suspended Huh-7 HCV replicon cells was added with a Multidrop workstation. The plates were incubated for 3 days at 37° C. with 5% CO2. Step 3: Detection: • a) for the EC50 assay, the media in a 96-well cell culture plate was aspirated with a Biotek EL405 plate-washer. A volume of 200 μL of a solution containing a 1:1 mixture of cell-lysis buffer (Promega, Luciferase Cell Culture Lysis 5× Reagent, cat. #E1531) and luciferase substrate solution (Promega, Luciferase Assay, cat. #E4550) was added to each well of the plate with Multidrop.
(§4) Results in table 7 are expressed by the following data: • the 50% effective concentration (EC50), i.e. the concentration that protects 50% of the cell monolayer from virus-induced cythopathic effect, and • the 50% cytostatic concentration (CC50), i.e. the concentration that results in 50% inhibition of cell growth. Table 7 further indicates the nature of substituents being present in positions 2, 4 and 6 of the pyrido[3,2-d]pyrimidine derivatives of the invention.

HCV replicon = test: Anti-HCV assay / replicon assay (EC50, luciferase read-out); format: cell-based, hepatitis C virus (HCV); settings: for CC50/EC50: CC50/EC50 ratio (selectivity index)
Description: as §1, §2, §3, §4

Huh-7 HCV replicon cells = test: CC50 assay in Huh-7 HCV replicon cells (CellTiter-Glo); format: cell-based, human; settings: 3 days, 50% cytostatic concentration
Description: as §1, §2, §3, §4

[2] = Hepatitis C virus, 72 h, human hepatoma Huh-7 cell line harbouring a HCV replicon, 3 days, luciferase luminescence, read-out: EC50
[3] = human hepatoma Huh-7 cell line harbouring a HCV replicon, 3 days, luciferase luminescence, read-out: EC50

Molecule `COc1ccc(-c2ccc3nc(N)nc(Nc4cccc(Br)c4)c3n2)cc1OC` [Example 34, 2-amino-4-(3-bromo-anilino)-6-(3,4-dimethoxyphenyl)pyrido[3,2-d]-pyrimidine] has a CC50 at 3 days [1] of 7700 nM, a CC50/EC50 (HCV replicon) of 151 and an EC50 (HCV replicon; [2]) of 51 nM.

Molecule `Cc1cccc(NC(=O)N2CCN(c3nc(N)nc4ccc(-c5ccc(Cl)c(Cl)c5)nc34)CC2)c1` [Example 191, 2-amino-4-[N-(3-methyl-phenyl-carbamoyl)-piperazin-1-yl]-6-(3,4-dichlorophenyl)-pyrido[3,2-d]pyrimidine] has a CC50 (Huh-7 HCV replicon cells) of 1200 nM, a CC50/EC50 (HCV replicon) of 132 and an EC50 (HCV replicon; [3]) of 9 nM.

`Cc1cccc(NC(=O)N2CCN(c3nc(N)nc4ccc(-c5ccc6c(c5)OCCO6)nc34)CC2)c1` [Example 192, 2-amino-4-[N-(3-methyl-phenyl-carbamoyl)-piperazin-1-yl]-6-(1,4-benzodioxane)-pyrido[3,2-d]pyrimidine] showed a CC50 (Huh-7 HCV replicon cells) of 690 nM, a CC50/EC50 (HCV replicon) of 147 and an EC50 (HCV replicon; [3]) of 5 nM.

`Nc1nc(N2CCN(C(=O)COc3ccc(Cl)cc3)CC2)c2nc(-c3ccc(F)cc3)ccc2n1` [Example 201, 2-amino-4-[(N-4-chloro-phenoxy-acetyl)-piperazin-1-yl]-6-(4-fluorophenyl)-pyrido[3,2-d]pyrimidine] gave a CC50 (Huh-7 HCV replicon cells) of 25100 nM, a CC50/EC50 (HCV replicon) of 558 and an EC50 (HCV replicon; [3]) of 45 nM.

`CCCOc1nc(N)nc2ccc(-c3ccccc3F)nc12` [Example 282, 2-amino-4-n-propoxy-6-(o-fluorophenyl)-pyrido[3,2-d]pyrimidine] gave a CC50 (Huh-7 HCV replicon cells) of 50100 nM, a CC50/EC50 (HCV replicon) of 89 and an EC50 (HCV replicon; [2]) of 560 nM.

`CCCCCOc1nc(N)nc2ccc(-c3ccccc3F)nc12` [Example 297, 2-amino-4-n-pentyloxy-6-(o-fluorophenyl)pyrido[3,2-d]-pyrimidine] gave a CC50 (Huh-7 HCV replicon cells) of 50100 nM, a CC50/EC50 (HCV replicon) of 66 and an EC50 (HCV replicon; [2]) of 760 nM.

Molecule `CCOc1nc(N)nc2ccc(-c3ccc(OC)c(OC)c3)nc12` [Example 307, 2-amino-4-ethoxy-6-(3,4-dimethoxy)pyrido[3,2-d]pyrimidine] has a CC50 (Huh-7 HCV replicon cells) of 50100 nM, a CC50/EC50 (HCV replicon) of 264 and an EC50 (HCV replicon; [3]) of 190 nM.

In the case of `N#Cc1ccc(-c2ccc3nc(N)nc(N4CCN(C(=O)COc5ccc(Cl)cc5)CC4)c3n2)cc1` [Example 378, 2-amino-4-[N-(4-chlorophenoxyacetyl)piperazin-1-yl]-6-(4-cyanophenyl)pyrido-[3,2-d]pyrimidine], the CC50 (Huh-7 HCV replicon cells) is reported as 4300 nM, the CC50/EC50 (HCV replicon) is reported as 571 and the EC50 (HCV replicon; [3]) is reported as 8 nM.

`Nc1nc(N2CCN(C(=O)COc3ccc(Cl)cc3)CC2)c2nc(-c3ccc(C(F)(F)F)cc3)ccc2n1` [Example 379, 2-amino-4-[N-(4-chlorophenoxyacetyl)piperazin-1-yl]-6-(4-trifluoromethylphenyl)-pyrido-[3,2-d]pyrimidine] showed a CC50 (Huh-7 HCV replicon cells) of 21600 nM, a CC50/EC50 (HCV replicon) of 287 and an EC50 (HCV replicon; [3]) of 75 nM.

For `Nc1nc(N2CCN(C(=O)COc3ccc(Cl)cc3)CC2)c2nc(-c3ccoc3)ccc2n1` [Example 381, 2-amino-4-[N-(4-chlorophenoxyacetyl)piperazin-1-yl]-6-(furan-3-yl)pyrido-[3,2-d]pyrimidine], the CC50 (Huh-7 HCV replicon cells) was 9100 nM, the CC50/EC50 (HCV replicon) was 149 and the EC50 (HCV replicon; [3]) was 61 nM.

In the case of `Nc1nc(N2CCN(C(=O)COc3ccc(Cl)cc3)CC2)c2nc(-c3ccsc3)ccc2n1` [Example 382, 2-amino-4-[N-(4-chlorophenoxyacetyl)piperazin-1-yl]-6-(thiophen-3-yl)pyrido-[3,2-d]pyrimidine], the CC50 (Huh-7 HCV replicon cells) is reported as 13100 nM, the CC50/EC50 (HCV replicon) is reported as 1523 and the EC50 (HCV replicon; [3]) is reported as 9 nM.

In the case of `Nc1nc(N2CCN(C(=O)COc3ccc(Cl)cc3)CC2)c2nc(-c3ccc(Cl)cc3)ccc2n1` [Example 384, 2-amino-4-[N-(4-chlorophenoxyacetyl)piperazin-1-yl]-6-(4-chlorophenyl)pyrido-[3,2-d]pyrimidine], the CC50 (Huh-7 HCV replicon cells) is reported as 12200 nM and 7900 nM, the CC50/EC50 (HCV replicon) is reported as 231 and 148 and the EC50 (HCV replicon; [3]) is reported as 53 nM.

Molecule `Nc1nc(N2CCN(C(=O)COc3ccc(Cl)cc3)CC2)c2nc(-c3cccc(Cl)c3)ccc2n1` [Example 385, 2-amino-4-[N-(4-chlorophenoxyacetyl)piperazin-1-yl]-6-(3-chlorophenyl)pyrido-[3,2-d]pyrimidine] has a CC50 (Huh-7 HCV replicon cells) of 7400 nM, a CC50/EC50 (HCV replicon) of 122 and an EC50 (HCV replicon; [3]) of 61 nM.

`Nc1nc(N2CCN(C(=O)COc3ccc(Cl)cc3)CC2)c2nc(-c3ccncc3)ccc2n1` [Example 386, 2-amino-4-[N-(4-chlorophenoxyacetyl)piperazin-1-yl]-6-(pyridin-4-yl)pyrido-[3,2-d]pyrimidine] gave a CC50 (Huh-7 HCV replicon cells) of 6000 nM, a CC50/EC50 (HCV replicon) of 4585 and an EC50 (HCV replicon; [3]) of 1 nM.

`Nc1nc(N2CCN(C(=O)COc3ccc(Cl)cc3)CC2)c2nc(-c3ccc(F)c(Cl)c3)ccc2n1` [Example 387, 2-amino-4-[N-(4-chlorophenoxyacetyl)piperazin-1-yl]-6-(3-chloro-4-fluorophenyl)-pyrido-[3,2-d]pyrimidine] gave a CC50 (Huh-7 HCV replicon cells) of 5900 nM, a CC50/EC50 (HCV replicon) of 280 and an EC50 (HCV replicon; [3]) of 21 nM.

With `Cc1cccc(NC(=O)N2CCN(c3nc(N)nc4ccc(-c5ccccc5)nc34)CC2)c1` [Example 389, 2-amino-4-[N-(3-methyl-phenyl-carbamoyl)-piperazin-1-yl]-6-phenyl-pyrido[3,2-d]pyrimidine] the CC50 (Huh-7 HCV replicon cells) was 4200 nM, the CC50/EC50 (HCV replicon) was 200 and the EC50 (HCV replicon; [3]) was 21 nM.

For `Cc1cccc(NC(=O)N2CCN(c3nc(N)nc4ccc(-c5ccc(F)cc5)nc34)CC2)c1` [Example 390, 2-amino-4-[N-(3-methylphenyl-carbamoyl)-piperazin-1-yl]-6-(4-fluorophenyl)-pyrido[3,2-d]pyrimidine], the CC50 (Huh-7 HCV replicon cells) was 3500 nM, the CC50/EC50 (HCV replicon) was 575 and the EC50 (HCV replicon; [3]) was 6 nM.

With `CSc1nc(N)nc2ccc(-c3ccc(F)cc3)nc12` [Example 392, 2-amino-4-thiomethyl-6-(4-fluorophenyl)-pyrido(3,2-d)pyrimidine] the CC50 (Huh-7 HCV replicon cells) was 25100 nM, the CC50/EC50 (HCV replicon) was 512 and the EC50 (HCV replicon; [3]) was 49 nM.

`CCSc1nc(N)nc2ccc(-c3ccc(F)cc3)nc12` [Example 393, 2-amino-4-thioethyl-6-(4-fluorophenyl)pyrido(3,2-d)pyrimidine] showed a CC50 (Huh-7 HCV replicon cells) of 36000 nM, a CC50/EC50 (HCV replicon) of 154 and an EC50 (HCV replicon; [3]) of 234 nM.

`CC(C)Sc1nc(N)nc2ccc(-c3ccc(F)cc3)nc12` [Example 394, 2-amino-4-thioisopropyl-6-(4-fluorophenyl)pyrido(3,2-d)pyrimidine] gave a CC50 (Huh-7 HCV replicon cells) of 50100 nM, a CC50/EC50 (HCV replicon) of 268 and an EC50 (HCV replicon; [3]) of 187 nM.

`Nc1nc(N2CCS(=O)(=O)CC2)c2nc(-c3ccc(F)cc3)ccc2n1` [Example 406, 2-amino-4-(thiomorpholino-1,1-dioxide)-6-(4-fluorophenyl)pyrido[3,2-d]pyrimidine] gave a CC50 (Huh-7 HCV replicon cells) of 25100 nM, a CC50/EC50 (HCV replicon) of 1931 and an EC50 (HCV replicon; [3]) of 13 nM.

`CS(=O)(=O)CCNc1nc(N)nc2ccc(-c3ccc(F)cc3)nc12` [Example 415, 2-amino-4-[(2-aminoethyl)methylsulfone]-6-(4-fluorophenyl)pyrido[3,2-d]pyrimidine] showed a CC50 (Huh-7 HCV replicon cells) of 11700 nM, a CC50/EC50 (HCV replicon) of 118 and an EC50 (HCV replicon; [3]) of 99 nM.

`CCOc1nc(N)nc2ccc(-c3ccc(F)c(Cl)c3)nc12` [Example 462, 6-(3-chloro-4-fluoro-phenyl)-4-ethoxy-pyrido[3,2-d]pyrimidin-2-ylamine] showed a CC50 (Huh-7 HCV replicon cells) of 50100 nM, a CC50/EC50 (HCV replicon) of 117 and an EC50 (HCV replicon; Hepatitis C virus, Huh-7, 72 h) of 428 nM.

Work on `CCOc1nc(N)nc2ccc(-c3ccc(Cl)cc3)nc12` [Example 463, 6-(4-chloro-phenyl)-4-ethoxy-pyrido[3,2-d]pyrimidin-2-ylamine] yielded a CC50 (Huh-7 HCV replicon cells) of 50100 nM, a CC50/EC50 (HCV replicon) of 98 and an EC50 (HCV replicon; Hepatitis C virus, Huh-7, 72 h) of 511 nM.

`CCOc1nc(N)nc2ccc(-c3ccc(N)cc3)nc12` [Example 465, 6-(4-amino-phenyl)-4-ethoxy-pyrido[3,2-d]pyrimidin-2-ylamine] showed a CC50 (Huh-7 HCV replicon cells) of 50100 nM, a CC50/EC50 (HCV replicon) of 145 and an EC50 (HCV replicon; Hepatitis C virus, Huh-7, 72 h) of 346 nM.

In the case of `CCOc1nc(N)nc2ccc(-c3cccs3)nc12` [Example 467, 4-Ethoxy-6-thiophen-2-yl-pyrido[3,2-d]pyrimidin-2-ylamine], the CC50 (Huh-7 HCV replicon cells) is reported as 50100 nM, the CC50/EC50 (HCV replicon) is reported as 113 and the EC50 (HCV replicon; [2]) is reported as 443 nM.

Work on `CCOc1nc(NC(C)=O)nc2ccc(-c3ccc(F)cc3)nc12` [NHCOMe/OEt/(4-F)Ph] yielded a CC50 (Huh-7 HCV replicon cells) of 25100 nM, a CC50/EC50 (HCV replicon) of 170 and an EC50 (HCV replicon; [3]) of 148 nM.
